Data set [1] concerns BLM. Nature of the data set: NSG murine xenograft of BLM clones with ACT of MART-1 T cells. Format: in vivo, mouse. The procedure:
For xenograft studies, 1×10^6 D10 or BLM tumor cells were admixed with Matrigel (Corning) and injected subcutaneously into NSG-β2M^null mice (The Jackson Laboratory). Growth was monitored three times per week with calipers, and tumor size was calculated using the following formula: ½×length (mm)×width (mm). When tumors reached indicated sizes, mice were randomized over different treatment groups in a blinded fashion and were administered 5×10^6 human CD8 T cells, intravenously in the tail vein. In vivo persistence of T cells was stimulated by administering 100.000 U IL-2 (Proleukin, Novartis) intraperitoneally daily for three consecutive days. In selected experiments, birinapant (MedChem Express) was administered intraperitoneally once every three days. […] In selected experiments, the PD-1-blocking antibody nivolumab (Slotervaart Hospital) was given once weekly (5 mg/kg). For studies in immunocompetent mice, 3×10^5 D4M.3A cells were injected subcutaneously into C57BI/6J mice (Janvier) and tumor growth was monitored three times per week with calipers.
To prepare lysates, snapfrozen tumor piecesd were weighed and lysed in RIPA buffer (50 mM TRIS pH 8.0, 150 mM NaCl, 1% Nonidet P40, 0.5% sodium deoxycholate, 0.1% SDS) supplemented with complete protease inhibitor cocktail (Roche Applied Science) and phosphatase inhibitors 10 mM NaF, 1 mM Na3VO4, 1 mM sodium pyrophosphate and 10 mM beta-glycerophosphate. Protein concentration was determined using a Bradford Protein Assay (Biorad).

The subject of another data set is D10. In words: NSG murine xenograft of D10 cells with adoptive cell transfer. The class given is in vivo, mouse. Conditions: anti-TNF antibody injected (FIG. 4C, D). As to the method:
For xenograft studies, 1×10^6 D10 or BLM tumor cells were admixed with Matrigel (Corning) and injected subcutaneously into NSG-β2M^null mice (The Jackson Laboratory). Growth was monitored three times per week with calipers, and tumor size was calculated using the following formula: ½×length (mm)×width (mm). When tumors reached indicated sizes, mice were randomized over different treatment groups in a blinded fashion and were administered 5×10^6 human CD8 T cells, intravenously in the tail vein. In vivo persistence of T cells was stimulated by administering 100.000 U IL-2 (Proleukin, Novartis) intraperitoneally daily for three consecutive days. In selected experiments, birinapant (MedChem Express) was administered intraperitoneally once every three days. Birinipant was formulated at 3 mg/ml in 12.5% captisol (CyDex Pharmaceuticals) in water adjusted to pH 4 with hydrochloric acid. […] In selected experiments, the PD-1-blocking antibody nivolumab (Slotervaart Hospital) was given once weekly (5 mg/kg). For studies in immunocompetent mice, 3×10^5 D4M.3A cells were injected subcutaneously into C57BI/6J mice (Janvier) and tumor growth was monitored three times per week with calipers.

The subject of a further data set is cIAP1/2. Conditions: Benetatos et al., 2014; FIG. 11C; cited from earlier work.
The test system of a further data set is D10 melanoma cells. In words: T cell cytotoxicity assay with MART-1 T cells. The class given is cell-based, human. The procedure:
(§1) 1.2×10^5 tumor cells were seeded per well in 12-well culture plates (Greiner). CD8 T cells were admixed in serial dilutions (two-fold, starting at a 1:1 ratio). After 24 hours, T cells were washed away. After a further 4 days, plates were fixed and stained for 1 hour using a crystal violet solution containing 0.1% crystal violet (Sigma) and 50% methanol (Honeywell). For quantification, remaining crystal violet was solubilized in 10% acetic acid (Sigma). Absorbance of this solution was measured on an Infinite 200 Pro spectrophotometer (Tecan) at 595 nm. In select experiments, tumor viability data was assessed with CellTiter-Blue (Promega) following manufacturer's instructions. In indicated experiments, 1 uM of birinapant (Selleck Chemicals) in DMSO (Sigma) was added during co-cultures. For Incucyte (Incucyte Zoom, Essen Bioscience) experiments, 5×10^3 tumor cells were seeded per well in 96-well culture plates (Greiner). CD8 T cells were admixed in indicated ratios and a Caspase-3/7 dye (Essen Bioscience) was added. Growth of these co-cultures was followed for 48 hours. […] In indicated experiments, enavatuzumab (indicated concentrations; Creative Biolabs) in the presence or absence of protein G (50 μg/mL; Thermo Fisher Scientific) was added. To cluster enavatuzumab, cells were pretreated for 1 hour with enavatuzumab, then protein G was added for a further 7 hours. Then, CD8 T cells were added to the tumor cells for a further 16 hours.

For data set [2], the system named is panel of 11 human melanoma and lung cancer cell lines. In words: MART-1 T cell cytotoxicity assay in a panel of tumor cell lines. Format: cell-based. As to the method: as §1, with “Then, CD8 T cells were added to the tumor cells for a further 16 hours.” left out
Data set [3] relates to BLM. Nature of the data set: T cell cytotoxicity assay of BLM clones. Conditions: wildtype and TRAF2-deficient BLM clones in vitro (FIG. 11F). Format: cell-based, human. As to the method:
as §1, with “Then, CD8 T cells were added to the tumor cells for a further 16 hours.” left out

Another data set has as its system SK-MEL-23. Nature of the data set: Caspase-3/7 dye tumor cell apoptosis after MART-1 T cell attack, SK-MEL-23. Format: cell-based, human. Conditions: combined with TRAF2 inactivation; neutralizing TNF antibody (FIG. 6B). The procedure:
as §1, with “Then, CD8 T cells were added to the tumor cells for a further 16 hours.” left out

The next data set relates to TRAF2. Nature of the data set: Western blot analysis of TRAF2 in treated D10 melanoma cells. Format: cell-based, human. The procedure: 1.2×10^5 tumor cells were seeded per well in 12-well culture plates (Greiner). CD8 T cells were admixed in serial dilutions (two-fold, starting at a 1:1 ratio). After 24 hours, T cells were washed away. After a further 4 days, plates were fixed and stained for 1 hour using a crystal violet solution containing 0.1% crystal violet (Sigma) and 50% methanol (Honeywell). For quantification, remaining crystal violet was solubilized in 10% acetic acid (Sigma). Absorbance of this solution was measured on an Infinite 200 Pro spectrophotometer (Tecan) at 595 nm. In select experiments, tumor viability data was assessed with CellTiter-Blue (Promega) following manufacturer's instructions. In indicated experiments, 1 uM of birinapant (Selleck Chemicals) in DMSO (Sigma) was added during co-cultures. […]
Cells were lysed in RIPA buffer (50 mM TRIS pH 8.0, 150 mM NaCl, 1% Nonidet P40, 0.5% sodium deoxycholate, 0.1% SDS) supplemented with complete protease inhibitor cocktail (Roche Applied Science) and phosphatase inhibitors 10 mM NaF, 1 mM Na3VO4, 1 mM sodium pyrophosphate and 10 mM beta-glycerophosphate. Protein concentration was determined using a Bradford Protein Assay (Biorad). […] Western blots were then incubated in SuperSignal West Dura Extended Duration Substrate (Thermo Scientific) and luminescence was captured on high performance autoradiography films (Amersham). […]

The test system of data set [4] is panel of 38 human tumor cell lines. Conditions: cited from earlier work.

In the case of “anti-PD-1: PD-1-blocking antibody nivolumab given once weekly (5 mg/kg)”, in the data set on BLM [1] (anti-PD-1 added to TRAF2 KO plus birinapant (FIG. 6E)), the “tumor control and overall survival” value was “superior tumor control, improving overall survival”. In the data set on BLM [1] (anti-PD-1 alone, wildtype BLM tumors (FIG. 6E)), the rejection of tumors result was “failed to affect rejection of VVT tumors”. In addition, the “intratumoral TNF after ICB” value in the data set on BLM [1] (non-responding setting (FIG. 11I)) is reported as “failed to see an upregulation of TNF after ICB”.

Turning to infliximab: TNF blocking antibody, the “tumor control of TRAF2-deficient tumors after ACT with MART-1 T cells” value in the data set with D10 is listed as “this tumor control was dependent on TNF”.

Regarding `CC[C@H](NC(=O)[C@H](C)NC)C(=O)N1C[C@@H](O)C[C@H]1Cc1c(-c2[nH]c3cc(F)ccc3c2C[C@@H]2C[C@H](O)CN2C(=O)[C@H](CC)NC(=O)[C@H](C)NC)[nH]c2cc(F)ccc12` [birinapant, (2S)—N-[(2S)-1-[(2R,4S)-2-[[6-fluoro-2-[6-fluoro-3-[[(2R,4S)-4-hydroxy-1-[(2S)-2-[[(2S) (methylamino)propanoyl]amino]butanoyl]pyrrolidin-2-yl]methyl]-1H-indol-2-yl]-1H-indolyl]methyl]-4-hydroxypyrrolidin-1-yl]-1-oxobutan-2-yl]-2-(methylamino)propanamide], the tumor control entry with BLM [1] (TRAF2 KO tumors treated with birinapant (FIG. 6E)) is on record as “better tumor control when compared to control tumors”. Also, the “tumor volume and survival” value in the data set on BLM [1] (TRAF2 genetic inactivation plus birinapant, ACT with MART-1 T cells (FIG. 6D)) is “induced both a reduction in tumor volume and extended survival”. Moreover, the “degradation of BIRC2/3 protein products (cIAP1/2)” value with cIAP1/2 is reported as “known to degrade both BIRC2/3 protein products”. For the same molecule, in the data set on D10 melanoma cells (D10 cells sgCtrl or sgTRAF2, with or without birinapant (FIG. 11D)), the “sensitivity to T cell killing in combination with TRAF2 inactivation” value is recorded as “synergized with TRAF2 inactivation in inducing sensitivity to T cell killing”. Moreover, the “tumor cell survival, sgTRAF2+DMSO vs. sgTRAF2+Bir” value in data set [2] (MART-1 T cell cytotoxicity assay, p<0.001 (FIG. 6A)) is reported as “significant for all cell lines”. The “sensitivity to T cell killing in combination with TRAF2 deletion” value in [2] (all tested tumor cell lines (FIG. 6A)) is “strong synergy between TRAF2 deletion and pharmaceutical targeting of cIAP1/2 in all tested tumor cell lines”. Moreover, the “response to T cells, TRAF2 deletion plus cIAP1/2 inhibition” value with BLM [3] is on record as “synergistic response”. Also, the “sensitivity to T cell-derived TNF” value in the data set on SK-MEL-23 was “induced a de novo sensitivity to T cell-derived TNF in SK-MEL-23”.

B1: TWEAK: ligand of Fn14 (TNF-like weak inducer of apoptosis); recombinant TWEAK (Peprotech) (protein)
chain: SAPKGRKTRARRAIAAHYEVHPRPGQDGAQAGVDGTVSGWEEARINSSSPLRYNRQIGEFIVTRAGLYYLYCQVHFDEGKAVYLKLDLLVDGVLALRCLEEFSATAASSLGPQLRLCQVSGLLALRPGSSLRIRTLPWAHLKAAPFLTYFGLFQVH
As for B1, the “sensitization of tumor cells to T cell killing” value with D10 melanoma cells (250 ng/mL TWEAK during exposure to MART-1 T cells (FIG. 3H)) is listed as “sensitized tumor cells to T cell killing”. Moreover, the “degradation of TRAF2” value in the data set with TRAF2 (D10 melanoma cells treated 8 hours with recombinant human TWEAK (FIG. 3G)) is reported as “led to the degradation of TRAF2”.

B2: enavatuzumab: agonistic anti-Fn14 antibody (Creative Biolabs) (antibody, chains of the INN, looked up, V domains shown)
VH: EVQLVESGGGLVQPGGSLRLSCAASGFTFSSYWMSWVRQAPGKGLEWVAEIRLKSDNYATHYAESVKGRFTISRDDSKNSLYLQMNSLRAEDTAVYYCTGYYADAMDYWGQGTLVTVSS
VL: DIQMTQSPSSLSASVGDRVTITCRASQSVSTSSYSYMHWYQQKPGKAPKLLIKYASNLESGVPSRFSGSGSGTDFTLTISSLQPEDFATYYCQHSWEIPYTFGGGTKVEIK
Consider B2, for which the “sensitivity to T cell cytotoxicity” value with D10 melanoma cells (clustered with protein G, D10 and SK-MEL-147, 1:8 T cell:tumor cell ratio (FIG. 3J, 9C)) is “induced sensitivity to T cell cytotoxicity in two melanoma cell lines”. Besides, the “dependence of sensitization on T cell-derived TNF” value in the data set with D10 melanoma cells (neutralization with anti-TNF antibody (FIG. 9D)) is “dependent on T cell-derived TNF”. The “dependence of sensitization on TRAF2” value with D10 melanoma cells (wildtype or TRAF2-deficient tumor cells (FIG. 3J)) is “sensitization by enavatuzumab was dependent on TRAF2”. Also, the “degradation of TRAF2” value in the data set with TRAF2 (D10 melanoma cells treated 8 hours, presence or absence of protein G (FIG. 3I)) is “caused degradation of TRAF2, but only upon receptor clustering by the addition of protein G”.

B3: Fn14 agonistic antibody: humanized anti-Fn14 agonistic antibody described by Michaelson et al. (2011) (antibody, chains of the INN, looked up, V domains shown)
VH: EVQLVESGGGLVQPGGSLRLSCAASGFTFSSYWMSWVRQAPGKGLEWVAEIRLKSDNYATHYAESVKGRFTISRDDSKNSLYLQMNSLRAEDTAVYYCTGYYADAMDYWGQGTLVTVSS
VL: DIQMTQSPSSLSASVGDRVTITCRASQSVSTSSYSYMHWYQQKPGKAPKLLIKYASNLESGVPSRFSGSGSGTDFTLTISSLQPEDFATYYCQHSWEIPYTFGGGTKVEIK
For the molecule B3, in [4], the “cell lines with growth inhibition” value is reported as “approximately 50%”.
